Data reported in US11530206B2, “Phenylaminopyrimidine amide autophagy inhibitors and methods of use thereof” (Deciphera Pharmaceuticals, LLC, priority 2019, dated 2022).

What was measured:
ULK kinase [1] = experiment: pATG13 levels of mutant KRas MiaPaCa-2 cells after treatment with ULK inhibitors in combination with trametinib (ELISA); type: cell-based, human; conditions: MiaPaCa-2 pancreatic cancer cells, 250 nM trametinib, overnight, pS318-ATG13
Method in brief: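 MiaPaCa-2 cells in DMEM with 10% FBS and 2.5% horse serum were pretreated with trametinib or DMSO, then given a test-compound dose response overnight at 37° C. Lysates were assayed for phospho-ATG13 by ELISA (A450 minus A540 background, blank-corrected). % phosphorylation was calculated relative to controls and fitted to IC50.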

ULK kinase [2] = experiment: pATG13 levels of mutant HRas T24 cells after treatment with ULK inhibitors in combination with trametinib (ELISA); type: cell-based, human; conditions: T24 urinary bladder cancer cells (mutant HRas), 250 nM trametinib, overnight, pS318-ATG13
Description: T24 human urinary bladder cancer cells (25000 cells/well) were added to a 96-well tissue-culture treated plate in 100 μL of pre-warmed DMEM medium supplemented with 10% characterized fetal bovine serum (Invitrogen, Carlsbad, Calif.), 100 units/mL penicillin G, and 100 μg/mL streptomycin and allowed to grow overnight at 37° C., 5% CO2, and 95% humidity. The following day, 100 μL of media containing trametinib or DMSO as a control was added to wells. […] A dose response of a test compound (0.5 μL per well) was added. DMSO (0.5 μL) was added to control wells. The plate was briefly shaken to mix wells and then incubated at 37° C. overnight. The next day, the media was aspirated and cells were washed with Dulbecco's Phosphate Buffered Saline (Gibco). Cells were lysed using MPER lysis buffer (Pierce, Rockford, Ill.) containing Halt Phosphatase and Protease Inhibitors (Pierce, Rockford, Ill.) and Phosphatase inhibitor cocktail 2 (Sigma, St. Louis, Mo.) at 4° C. for 10 minutes with shaking.
Plate wells were washed with ELISA wash buffer. Cell lysate was added to wells and incubated at room temperature for 2 hours. Plate wells were washed with ELISA wash buffer. […] Plate wells were washed with ELISA wash buffer. […] Plate wells were washed with ELISA wash buffer. […] The reaction was stopped with 2N Sulfuric Acid. The plate was analyzed at on a plate reader measuring absorbance at 450 nm and 540 nm (background). Signal was calculated by first subtracting the background absorbance at 540 nm from the absorbance at 450 nm for each well. Next, the background corrected absorbance at 450 nm from blank wells was subtracted from test wells. Data was compared to control wells to determine % ATG13 phosphorylation. GraphPad Prism was used to calculate IC50 values.

ULK kinase [3] = experiment: pATG13 levels of mutant KRas A549 cells after treatment with ULK inhibitors in combination with trametinib (ELISA); type: cell-based, human; conditions: A549 (KRAS mutant) lung cancer cells, 250 nM trametinib, overnight, pS318-ATG13
Method in brief: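 Lysates with phosphatase/protease inhibitors assayed by pATG13 ELISA, A450 minus A540 background and blank-corrected. % ATG13 phosphorylation versus DMSO controls fitted to IC50.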

LRRK2 kinase = biological target: T1, LRRK2 kinase (Homo sapiens, UniProt Q5S007); experiment: Biochemical assay for LRRK2 (coupled pyruvate kinase/lactate dehydrogenase assay); conditions: 26.4 nM LRRK2 (residues 970-2528), peptide substrate, 1 mM ATP
T1 construct: purchased Thermo Fisher
T1 sequence (Q5S007 with tags, fused parts or gaps): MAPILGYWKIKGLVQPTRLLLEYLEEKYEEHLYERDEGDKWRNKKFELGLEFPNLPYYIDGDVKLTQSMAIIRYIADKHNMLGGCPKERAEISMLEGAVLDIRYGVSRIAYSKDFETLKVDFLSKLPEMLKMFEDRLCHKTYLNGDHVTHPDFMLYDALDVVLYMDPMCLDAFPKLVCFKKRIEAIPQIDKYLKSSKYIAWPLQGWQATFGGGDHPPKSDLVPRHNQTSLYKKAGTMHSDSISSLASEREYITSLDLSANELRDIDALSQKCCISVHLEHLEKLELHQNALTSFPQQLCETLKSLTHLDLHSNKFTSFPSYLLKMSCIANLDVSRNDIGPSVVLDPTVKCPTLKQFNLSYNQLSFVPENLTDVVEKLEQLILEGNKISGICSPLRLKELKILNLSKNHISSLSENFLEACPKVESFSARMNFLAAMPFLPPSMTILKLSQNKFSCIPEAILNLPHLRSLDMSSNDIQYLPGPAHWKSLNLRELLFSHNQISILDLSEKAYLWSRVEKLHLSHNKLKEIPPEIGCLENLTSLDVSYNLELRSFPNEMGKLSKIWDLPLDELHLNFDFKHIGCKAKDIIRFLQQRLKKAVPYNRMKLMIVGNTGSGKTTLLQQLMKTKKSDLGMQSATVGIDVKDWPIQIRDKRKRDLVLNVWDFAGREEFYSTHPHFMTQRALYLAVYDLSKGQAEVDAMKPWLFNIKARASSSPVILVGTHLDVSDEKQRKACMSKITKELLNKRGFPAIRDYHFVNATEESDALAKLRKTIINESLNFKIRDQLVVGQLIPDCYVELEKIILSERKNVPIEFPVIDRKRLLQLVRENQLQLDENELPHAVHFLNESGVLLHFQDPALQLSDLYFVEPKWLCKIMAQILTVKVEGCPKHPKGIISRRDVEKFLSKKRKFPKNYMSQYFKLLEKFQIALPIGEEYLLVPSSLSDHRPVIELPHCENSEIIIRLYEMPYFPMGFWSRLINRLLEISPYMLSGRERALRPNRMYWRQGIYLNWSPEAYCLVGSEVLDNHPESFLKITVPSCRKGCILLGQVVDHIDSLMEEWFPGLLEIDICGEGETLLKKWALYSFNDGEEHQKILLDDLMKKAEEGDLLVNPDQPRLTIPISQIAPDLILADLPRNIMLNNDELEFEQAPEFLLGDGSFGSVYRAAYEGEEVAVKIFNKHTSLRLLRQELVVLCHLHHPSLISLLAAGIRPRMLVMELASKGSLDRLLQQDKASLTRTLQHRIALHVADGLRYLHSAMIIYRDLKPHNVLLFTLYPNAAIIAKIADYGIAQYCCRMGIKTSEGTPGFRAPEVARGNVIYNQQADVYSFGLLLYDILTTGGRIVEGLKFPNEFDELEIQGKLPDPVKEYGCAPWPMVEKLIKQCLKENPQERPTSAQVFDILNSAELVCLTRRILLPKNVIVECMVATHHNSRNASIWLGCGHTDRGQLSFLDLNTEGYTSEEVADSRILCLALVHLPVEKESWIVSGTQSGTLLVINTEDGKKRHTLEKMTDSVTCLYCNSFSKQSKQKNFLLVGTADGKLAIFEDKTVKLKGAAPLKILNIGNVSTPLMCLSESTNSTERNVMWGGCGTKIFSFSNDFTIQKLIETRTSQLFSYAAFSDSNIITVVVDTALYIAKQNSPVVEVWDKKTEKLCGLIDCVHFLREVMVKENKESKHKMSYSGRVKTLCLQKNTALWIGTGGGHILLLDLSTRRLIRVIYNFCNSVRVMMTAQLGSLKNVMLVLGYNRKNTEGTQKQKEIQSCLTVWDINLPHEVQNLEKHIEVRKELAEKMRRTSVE
Method in brief: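 Recombinant LRRK2 (26.4 nM) with 0.1 mM peptide substrate and 1 mM ATP in Tris pH 7.5/MgCl2 buffer; ADP production coupled via PK/LDH to NADH oxidation, A340 read continuously 6 h at 30 °C. Rates from 2–3 h window converted to % inhibition versus no-compound and reference-inhibitor controls; IC50 fitted.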

Row | SMILES | IC50 (ULK kinase [1]) [nM] | IC50 (ULK kinase [2]) [nM] | IC50 (ULK kinase [3]) [nM] | IC50 (LRRK2 kinase) [nM]
1 | CN1CCN(c2ccc(Nc3ncc(C(F)(F)F)c(NCCCN4CCCCC4=O)n3)c(C3CC3)c2)CC1 [Example 14] | 10 to 100 | 10 to 100 | 10 to 100 | 1 to 100
2 | CCc1cc(N2CCN(C)CC2)ccc1Nc1ncc(C(F)(F)F)c(NCCCN2CCCOC2=O)n1 [Example 39] | 10 to 100 | 10 to 100 | 10 to 100 | 1 to 100
3 | CN1CCN(c2ccc(Nc3ncc(C(F)(F)F)c(NCCCN4CCCOC4=O)n3)c(C3CC3)c2)CC1 [Example 41] | 10 to 100 | 10 to 100 | 10 to 100 | 1 to 100
4 | CCc1cc(N2CCNCC2)ccc1Nc1ncc(C(F)(F)F)c(NCCCN2CCCOC2=O)n1 [Example 46] | 10 to 100 | 100 to 300 | 10 to 100 | 100 to 300
5 | CN1CCN(c2ccc(Nc3ncc(C(F)(F)F)c(NCCCN4CCCOCC4=O)n3)c(C3CC3)c2)CC1 [Example 52] | 10 to 100 |  | 10 to 100 | 1 to 100
6 | CN1CCN(c2ccc(Nc3ncc(Cl)c(NCCCN4CCCOCC4=O)n3)c(C3CC3)c2)CC1 [Example 55] | 10 to 100 |  | 100 to 300 | 100 to 300
7 | CN1CCN(c2ccc(Nc3ncc(C(F)(F)F)c(NCCCN4CCOCCC4=O)n3)c(C3CC3)c2)CC1 [Example 70] | 10 to 100 | 10 to 100 | 10 to 100 | 1 to 100
8 | CCc1cc(N2CC3CCC(C2)N3C)ccc1Nc1ncc(C(F)(F)F)c(NCCCN2CCOCCC2=O)n1 [Example 74] | 10 to 100 | 10 to 100 | 10 to 100 | 300 to 600
9 | CCc1cc(N2CCN(C)CC2)ccc1Nc1ncc(Br)c(NCCCN2CCOCCC2=O)n1 [Example 76] | 10 to 100 | 10 to 100 | 10 to 100 | 100 to 300
10 | CCc1cc(N2CCNCC2)ccc1Nc1ncc(C(F)(F)F)c(NCCCN2CCOCCC2=O)n1 [Example 84] | 10 to 100 | 100 to 300 | 10 to 100 | 100 to 300
11 | CCc1cc(N2CCN(C)CC2)c(F)cc1Nc1ncc(C(F)(F)F)c(NCCCN2CCOCCC2=O)n1 [Example 86] | 10 to 100 | 100 to 300 | 10 to 100 | 1 to 100
12 | O=C1OCCCN1CCCNc1nc(Nc2ccc(N3CCNCC3)cc2C2CC2)ncc1C(F)(F)F [Example 99] | 100 to 300 | 100 to 300 | 10 to 100 | 1 to 100
